From publication PMC4831468, “White collar 1‐induced photolyase expression contributes to UV‐tolerance of Ustilago maydis” (MicrobiologyOpen, 2015) come the findings set out here.

Holding throughout (type): binding
In test [1] the target is T1, Phr2 (Mycosarcoma maydis, UniProt A0A0D1E060).
T1 construct: gene UMAG_02144; pET51b, 10xHis- and Strep-tagged, E. coli Rosetta(DE3)
T1 sequence (A0A0D1E060 1-684): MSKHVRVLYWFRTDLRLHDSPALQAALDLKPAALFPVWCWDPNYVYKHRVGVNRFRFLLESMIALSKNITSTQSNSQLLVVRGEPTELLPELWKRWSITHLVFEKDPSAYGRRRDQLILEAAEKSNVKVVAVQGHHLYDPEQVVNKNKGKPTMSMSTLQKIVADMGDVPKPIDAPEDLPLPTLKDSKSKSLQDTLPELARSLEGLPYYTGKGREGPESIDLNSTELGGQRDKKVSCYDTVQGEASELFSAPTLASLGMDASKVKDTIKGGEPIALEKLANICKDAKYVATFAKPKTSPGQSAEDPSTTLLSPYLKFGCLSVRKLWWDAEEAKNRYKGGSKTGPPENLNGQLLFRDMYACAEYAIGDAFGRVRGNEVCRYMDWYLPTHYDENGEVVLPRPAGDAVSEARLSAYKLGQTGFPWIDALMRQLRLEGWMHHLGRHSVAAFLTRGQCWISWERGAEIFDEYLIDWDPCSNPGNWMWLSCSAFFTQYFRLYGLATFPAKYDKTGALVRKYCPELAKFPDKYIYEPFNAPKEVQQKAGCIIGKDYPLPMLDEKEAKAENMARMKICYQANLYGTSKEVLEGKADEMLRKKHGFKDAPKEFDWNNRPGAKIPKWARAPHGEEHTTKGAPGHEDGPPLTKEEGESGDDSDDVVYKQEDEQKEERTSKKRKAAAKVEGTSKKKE
In words: UV-Vis absorption spectroscopy of copurified chromophore; blue-light photoreduction. Particulars: copurified from E. coli; photoreduction with 10 mM DTT, pH 7.5, 15 C.

Test [2] concerns the target T2, Phr1 (Mycosarcoma maydis, UniProt A0A0D1DNG6).
T2 construct: gene UMAG_06079
T2 sequence (A0A0D1DNG6 1-655): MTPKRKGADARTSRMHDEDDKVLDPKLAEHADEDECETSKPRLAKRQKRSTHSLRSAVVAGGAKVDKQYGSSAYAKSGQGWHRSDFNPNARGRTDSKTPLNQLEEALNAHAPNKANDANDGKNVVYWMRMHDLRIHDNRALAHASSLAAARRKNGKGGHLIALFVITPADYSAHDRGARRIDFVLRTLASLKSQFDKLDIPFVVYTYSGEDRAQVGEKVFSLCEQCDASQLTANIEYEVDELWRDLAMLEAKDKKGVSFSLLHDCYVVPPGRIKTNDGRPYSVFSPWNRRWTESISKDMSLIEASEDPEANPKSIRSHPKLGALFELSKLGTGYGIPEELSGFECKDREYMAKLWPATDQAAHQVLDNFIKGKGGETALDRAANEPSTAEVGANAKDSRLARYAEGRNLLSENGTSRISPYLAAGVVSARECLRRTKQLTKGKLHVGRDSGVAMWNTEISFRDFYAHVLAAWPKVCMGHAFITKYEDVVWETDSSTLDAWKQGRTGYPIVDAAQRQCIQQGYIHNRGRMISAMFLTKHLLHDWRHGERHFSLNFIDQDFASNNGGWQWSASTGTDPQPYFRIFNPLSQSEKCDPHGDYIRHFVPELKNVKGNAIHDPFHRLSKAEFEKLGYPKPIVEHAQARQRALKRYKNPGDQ
The description is as above. Particulars: copurified from E. coli; photoreduction with 10 mM DTT, pH 7.5, 15 C.

Test [3] has as its target T3, Cry2 (Mycosarcoma maydis, UniProt A0A0D1DUB1).
T3 construct: gene UMAG_05917; pET51b, 10xHis- and Strep-tagged, E. coli Arctic Express
T3 sequence (A0A0D1DUB1 1-623): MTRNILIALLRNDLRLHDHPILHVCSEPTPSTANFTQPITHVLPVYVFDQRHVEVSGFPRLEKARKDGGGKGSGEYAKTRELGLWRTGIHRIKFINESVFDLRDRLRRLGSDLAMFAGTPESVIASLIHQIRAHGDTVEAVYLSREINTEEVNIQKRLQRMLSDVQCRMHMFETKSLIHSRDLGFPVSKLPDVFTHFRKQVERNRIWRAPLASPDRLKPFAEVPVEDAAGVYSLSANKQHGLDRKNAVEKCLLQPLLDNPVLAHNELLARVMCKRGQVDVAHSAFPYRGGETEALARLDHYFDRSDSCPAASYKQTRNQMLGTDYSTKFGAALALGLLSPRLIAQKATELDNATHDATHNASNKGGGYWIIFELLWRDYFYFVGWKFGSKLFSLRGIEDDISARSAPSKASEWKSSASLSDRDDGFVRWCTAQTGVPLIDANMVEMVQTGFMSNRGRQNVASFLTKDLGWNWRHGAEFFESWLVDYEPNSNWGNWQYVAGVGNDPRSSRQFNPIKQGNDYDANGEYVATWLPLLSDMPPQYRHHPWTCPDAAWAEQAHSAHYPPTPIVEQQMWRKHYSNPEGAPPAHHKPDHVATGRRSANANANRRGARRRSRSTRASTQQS
The description is as above. Particulars: copurified from E. coli; photoreduction with 10 mM DTT, pH 7.5, 15 C.

The target of test [4] is T4, Cry1 (Mycosarcoma maydis, UniProt A0A0D1CDQ8).
T4 construct: gene UMAG_01131; pET51b, 10xHis- and Strep-tagged, synthetic cDNA, E. coli BL21(DE3)
T4 sequence (A0A0D1CDQ8 1-881): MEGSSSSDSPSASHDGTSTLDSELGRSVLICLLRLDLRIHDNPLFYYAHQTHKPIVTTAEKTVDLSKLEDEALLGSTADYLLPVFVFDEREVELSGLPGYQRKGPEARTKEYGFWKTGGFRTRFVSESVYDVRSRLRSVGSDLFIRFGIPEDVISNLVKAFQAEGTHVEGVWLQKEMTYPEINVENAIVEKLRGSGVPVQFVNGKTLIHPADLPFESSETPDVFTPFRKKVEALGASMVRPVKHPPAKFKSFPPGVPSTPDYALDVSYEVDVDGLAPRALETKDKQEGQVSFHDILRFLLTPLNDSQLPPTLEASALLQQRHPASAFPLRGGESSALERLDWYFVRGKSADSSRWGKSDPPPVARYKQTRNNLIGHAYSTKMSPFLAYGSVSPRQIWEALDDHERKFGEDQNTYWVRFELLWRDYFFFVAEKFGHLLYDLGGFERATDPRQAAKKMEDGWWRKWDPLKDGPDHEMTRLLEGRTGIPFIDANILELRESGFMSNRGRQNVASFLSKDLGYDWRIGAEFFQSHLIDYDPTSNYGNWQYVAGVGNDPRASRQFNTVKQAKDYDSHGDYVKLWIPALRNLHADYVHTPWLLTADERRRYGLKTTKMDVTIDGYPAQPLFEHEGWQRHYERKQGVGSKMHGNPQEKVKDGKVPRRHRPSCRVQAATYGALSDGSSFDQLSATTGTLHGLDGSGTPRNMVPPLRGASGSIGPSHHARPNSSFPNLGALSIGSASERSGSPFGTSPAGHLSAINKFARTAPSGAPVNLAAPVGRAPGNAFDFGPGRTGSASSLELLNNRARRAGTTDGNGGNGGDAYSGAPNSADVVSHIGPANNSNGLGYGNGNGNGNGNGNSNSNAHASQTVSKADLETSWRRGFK
The test is described as above. Particulars: copurified from E. coli; photoreduction with 10 mM DTT, pH 7.5, 15 C.

The target in test [5] is T3, Cry2. In words: UV-Vis absorption spectroscopy of copurified chromophore (about […] nm peak). The following applies: copurified from E. coli; antenna chromophore, second site beside FAD; assigned from spectrum only.
Test [6] concerns the target T2, Phr1. The description is as above. The following applies: copurified from E. coli; antenna chromophore, second site beside FAD; assigned from spectrum only.

Molecules are shown by their SMILES.

`Cc1cc2nc3c(=O)[nH]c(=O)nc-3n(C[C@H](O)[C@H](O)[C@H](O)COP(=O)(O)OP(=O)(O)OC[C@H]3O[C@@H](n4cnc5c(N)ncnc54)[C@H](O)[C@@H]3O)c2cc1C` [FAD]: the “UV-Vis absorption spectroscopy of copurified chromophore; blue-light photoreduct” value in test [1], in test [2], in test [3] and in test [4] was “these data proved that all CPF members of U. maydis bind FAD” each time.

Turning to `Nc1nc2c(c(=O)[nH]1)[N+]1=CN(c3ccc(C(=O)N[C@@H](CCC(=O)O)C(=O)O)cc3)C[C@H]1CN2` [MTHF], the “UV-Vis absorption spectroscopy of copurified chromophore (about 380 nm peak)” value is “Methenyltetrahydrofolate (MTHF) is the second cofactor of Cry2 and Phr1” in test [5]; “Methenyltetrahydrofolate (MTHF) is the second cofactor of Cry2 and Phr1” in test [6].
